Consider one compound from patent US20210292710A1, “METHOD FOR ENHANCING IMMUNE FUNCTION OF IMMUNE CELL AND IMMUNE CELL LINE PRODUCED USING THE SAME” (INDUSTRY-ACADEMIC COOPERATION FOUNDATION, YONSEI UNIVERSITY, priority 2020, published 2021).

The test deals with GLUT1. As to the kind of experiment: GLUT1 expression in T cell based on type of PI3K inhibitor. From the text:
More specifically, referring to (a) of FIG. 12, the results of GLUT1 expression according to the type of PI3K inhibitor in the helper T cell are shown. In this connection, the PI3K inhibitor may include BKM 120 that may inhibit all subtypes, CAL-101 that may inhibit only p110δ, IPI-145 capable of inhibiting p110γ and P110δ, BYLT719 capable of inhibiting only p110α, and TGX-211 capable of inhibiting only p110β.
Referring to (b) of FIG. 12, the results of GLUT1 expression according to the type of PI3K inhibitor in cytotoxic T cells are shown.

Regarding `CC[C@H](Nc1ncnc2[nH]cnc12)c1nc2cccc(F)c2c(=O)n1-c1ccccc1` [CAL-101, idelalisib], the “GLUT1 expression level versus BYLT719 and TGX-211 inhibitors” value (cytotoxic T cells) was “higher GLUT1 expression levels”; the “GLUT1 expression level versus BYLT719 and TGX-211 inhibitors” value (helper T cell) is recorded as “higher GLUT1 expression levels”.
